Laboratory results: PubChem BioAssay AID270 (DTP/NCI, 2004)
Records with an inconclusive call do not appear.

Test system: BDF1 mice, s.c. Lewis lung carcinoma, T/C %
Assay: NCI In Vivo Anticancer Drug Screen. Data for tumor model Lewis Lung Carcinoma (subcutaneous) in B6D2F1 (BDF1) mice
In short: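 Tumor-bearing mice were treated with test compound, and either survival or tumor size was recorded. Values are the treated-group measurement divided by that of the vehicle-treated control group.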

[1] = endpoint: mean tumor weight, dose: 200.0 mg/kg/injection, schedule: Q01DX011 (ip), vehicle: other, higher = larger tumour

In the case of `COc1c(Cl)cc2c(c1OC)N(C)C1N3C(=O)C4(C)SSC3(C(=O)N4C)C(O)C21O` (centres undefined), the T/C (endpoint: median survival time, dose: 0.12 mg/kg/injection, schedule: Q01DX009 (ip), vehicle: Klucel (hydroxypropylcellulose) (HPC), higher = longer survival) is reported as 96 % of control, the T/C (endpoint: median survival time, dose: 0.25 mg/kg/injection, schedule: Q01DX009 (ip), vehicle: Klucel (hydroxypropylcellulose) (HPC), higher = longer survival) is reported as 94 % of control and the T/C (endpoint: median survival time, dose: 0.5 mg/kg/injection, schedule: Q01DX009 (ip), vehicle: Klucel (hydroxypropylcellulose) (HPC), higher = longer survival) is reported as 96 % of control.

For `Nc1nc(-c2ccccc2N=NN2CCCC2)nc2ccccc12`, the T/C (endpoint: median survival time, dose: 6.25 mg/kg/injection, schedule: Q01DX009 (ip), vehicle: Klucel (hydroxypropylcellulose) (HPC), higher = longer survival) was 105 % of control, the T/C (endpoint: median survival time, dose: 12.5 mg/kg/injection, schedule: Q01DX009 (ip), vehicle: Klucel (hydroxypropylcellulose) (HPC), higher = longer survival) was 97 % of control and the T/C (endpoint: median survival time, dose: 25.0 mg/kg/injection, schedule: Q01DX009 (ip), vehicle: Klucel (hydroxypropylcellulose) (HPC), higher = longer survival) was 103 % of control.

In the case of `Nc1nc(=O)n(C2CC(O)C(CO)O2)cc1Br` (centres undefined), the T/C (endpoint: mean tumor weight, dose: 50.0 mg/kg/injection, schedule: Q01DX011 (ip), vehicle: carboxymethylcellulose (CMC), higher = larger tumour) is reported as 65 % of control, the T/C (endpoint: mean tumor weight, dose: 100.0 mg/kg/injection, schedule: Q01DX011 (ip), vehicle: carboxymethylcellulose (CMC), higher = larger tumour) is reported as 55 % of control and the T/C (endpoint: mean tumor weight, dose: 200.0 mg/kg/injection, schedule: Q01DX011 (ip), vehicle: carboxymethylcellulose (CMC), higher = larger tumour) is reported as 64 % of control. The T/C (endpoint: mean tumor weight, dose: 400.0 mg/kg/injection, schedule: Q01DX011 (ip), vehicle: carboxymethylcellulose (CMC), higher = larger tumour) was 88 % of control and the T/C (endpoint: mean tumor weight, dose: 800.0 mg/kg/injection, schedule: Q01DX011 (ip), vehicle: carboxymethylcellulose (CMC), higher = larger tumour) was 34 % of control.

`CN1C(=O)C=CC1=O` was tested, and the T/C (endpoint: median survival time, dose: 0.5 mg/kg/injection, schedule: Q02DX009 (ip), vehicle: saline, higher = longer survival) was 113 % of control, the T/C (endpoint: median survival time, dose: 1.0 mg/kg/injection, schedule: Q02DX009 (ip), vehicle: saline, higher = longer survival) was 103 % of control and the T/C (endpoint: median survival time, dose: 2.0 mg/kg/injection, schedule: Q02DX009 (ip), vehicle: saline, higher = longer survival) was 100 % of control. For the same compound, the T/C (endpoint: median survival time, dose: 4.0 mg/kg/injection, schedule: Q02DX009 (ip), vehicle: saline, higher = longer survival) was 94 % of control.

In the case of `O=c1n(CCCl)c(=O)n(CCCl)c(=O)n1CCCl`, the T/C (endpoint: mean tumor weight, dose: 25.0 mg/kg/injection, schedule: Q01DX011 (ip), vehicle: other, higher = larger tumour) is reported as 121 % of control, the T/C (endpoint: mean tumor weight, dose: 50.0 mg/kg/injection, schedule: Q01DX011 (ip), vehicle: other, higher = larger tumour) is reported as 116 % of control and the T/C (endpoint: mean tumor weight, dose: 100.0 mg/kg/injection, schedule: Q01DX011 (ip), vehicle: other, higher = larger tumour) is reported as 65 % of control. For the same compound, the T/C [1] was 113 % of control and the T/C (endpoint: mean tumor weight, dose: 400.0 mg/kg/injection, schedule: Q01DX011 (ip), vehicle: other, higher = larger tumour) was 108 % of control.

With `CN1C2CCC1CC(OC(=O)C(CO)c1ccccc1)C2` (centres undefined) the T/C (endpoint: mean tumor weight, dose: 12.5 mg/kg/injection, schedule: Q01DX011 (ip), vehicle: saline, higher = larger tumour) was 92 % of control, the T/C (endpoint: mean tumor weight, dose: 50.0 mg/kg/injection, schedule: Q01DX011 (ip), vehicle: saline, higher = larger tumour) was 72 % of control and the T/C (endpoint: mean tumor weight, dose: 100.0 mg/kg/injection, schedule: Q01DX011 (ip), vehicle: saline, higher = larger tumour) was 154 % of control.

`CCCCCCCCCCCCCCCCCC(=O)NN` was tested, and the T/C (endpoint: median survival time, dose: 200.0 mg/kg/injection, schedule: Q01DX009 (ip), vehicle: Klucel (hydroxypropylcellulose) (HPC), higher = longer survival) was 120 % of control.

In the case of `CS(=O)(=O)c1ccccc1`, the T/C (endpoint: mean tumor weight, dose: 58.0 mg/kg/injection, schedule: Q01DX011 (ip), vehicle: other, higher = larger tumour) is reported as 99 % of control, the T/C (endpoint: mean tumor weight, dose: 88.0 mg/kg/injection, schedule: Q01DX011 (ip), vehicle: other, higher = larger tumour) is reported as 103 % of control and the T/C (endpoint: mean tumor weight, dose: 133.0 mg/kg/injection, schedule: Q01DX011 (ip), vehicle: other, higher = larger tumour) is reported as 83 % of control. For the same compound, the T/C [1] was 79 % of control, the T/C (endpoint: mean tumor weight, dose: 250.0 mg/kg/injection, schedule: Q01DX011 (ip), vehicle: other, higher = larger tumour) was 77 % of control and the T/C (endpoint: mean tumor weight, dose: 500.0 mg/kg/injection, schedule: Q01DX011 (ip), vehicle: other, higher = larger tumour) was 80 % of control. For the same compound, the T/C (endpoint: mean tumor weight, dose: 750.0 mg/kg/injection, schedule: Q01DX011 (ip), vehicle: other, higher = larger tumour) was 76 % of control and the T/C (endpoint: mean tumor weight, dose: 1000.0 mg/kg/injection, schedule: Q01DX011 (ip), vehicle: other, higher = larger tumour) was 93 % of control.

With `CC1CN1P(=O)(N1CC1C)N1CC1C` (centres undefined) the T/C (endpoint: median survival time, dose: 6.25 mg/kg/injection, schedule: Q01DX009 (ip), vehicle: saline, higher = longer survival) was 98 % of control, the T/C (endpoint: median survival time, dose: 12.5 mg/kg/injection, schedule: Q01DX009 (ip), vehicle: saline, higher = longer survival) was 90 % of control and the T/C (endpoint: median survival time, dose: 25.0 mg/kg/injection, schedule: Q01DX009 (ip), vehicle: saline, higher = longer survival) was 89 % of control.

With `O=c1cc(-c2ccccc2)oc2cccc(O)c12` the T/C (endpoint: mean tumor weight, dose: 50.0 mg/kg/injection, schedule: Q01DX010 (ip), vehicle: saline, higher = larger tumour) was 73 % of control, the T/C (endpoint: mean tumor weight, dose: 100.0 mg/kg/injection, schedule: Q01DX010 (ip), vehicle: saline, higher = larger tumour) was 70 % of control and the T/C (endpoint: mean tumor weight, dose: 200.0 mg/kg/injection, schedule: Q01DX010 (ip), vehicle: saline, higher = larger tumour) was 82 % of control. For the same compound, the T/C (endpoint: mean tumor weight, dose: 400.0 mg/kg/injection, schedule: Q01DX010 (ip), vehicle: saline, higher = larger tumour) was 67 % of control.
